Laboratory results reported in ChEMBL document CHEMBL1128456, “Synthesis and biological evaluation of N6-cycloalkyl derivatives of 1-deazaadenine nucleosides: a new class of anti-human immunodeficiency virus agents” (J Med Chem, 1995).

Key:
[1] = In vitro evaluation of cytotoxicity in C8166 cells infected with HIV-1 IIIB.; type: cell-based; conditions: human, read-out: TC50 (the source's name)
[2] = tested on: Human immunodeficiency virus 1; experiment: In vitro evaluation of anti-HIV-1 activity in C8166 cells infected with HIV-1 IIIB.; type: functional; conditions: Human immunodeficiency virus 1, C8166; read-out: ED50 (the source's name)
Adenosine deaminase = molecular target: T1, Adenosine deaminase (Bos taurus, UniProt P56658); experiment: Inhibition calf intestine adenosine deaminase
T1 sequence (P56658 whole entry): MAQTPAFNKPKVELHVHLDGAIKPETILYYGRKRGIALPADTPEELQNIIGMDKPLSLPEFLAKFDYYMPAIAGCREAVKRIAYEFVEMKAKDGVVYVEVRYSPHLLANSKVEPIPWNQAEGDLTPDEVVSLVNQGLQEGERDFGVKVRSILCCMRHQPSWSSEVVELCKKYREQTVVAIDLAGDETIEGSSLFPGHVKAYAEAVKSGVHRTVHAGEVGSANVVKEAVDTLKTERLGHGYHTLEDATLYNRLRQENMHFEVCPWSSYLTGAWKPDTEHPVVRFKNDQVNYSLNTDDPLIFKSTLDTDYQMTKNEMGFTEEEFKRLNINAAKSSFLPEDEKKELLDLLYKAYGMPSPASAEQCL

SMILES: Nc1cc(Cl)nc2c1ncn2[C@H]1C[C@H](O)[C@@H](CO)O1
- CC50 [1]: > 100 µM
- EC50 [2]: > 100 µM
- Ki (Adenosine deaminase): 23 µM

SMILES: OC[C@H]1O[C@@H](n2cnc3c(NC4CCC4)ccnc32)C[C@@H]1O
- CC50 [1]: 400 µM
- EC50 [2]: 20 µM
- Ki (Adenosine deaminase): 97 µM

SMILES: OC[C@H]1OC(n2cnc3c(NC4CCCCCCC4)cc(Cl)nc32)[C@H](O)[C@@H]1O (stereo partly specified)
- CC50 [1]: 40 µM
- EC50 [2]: 2 µM
- Ki (Adenosine deaminase): 71 µM

SMILES: OCC1CCC(n2cnc3c(NC4CCC4)ccnc32)O1 (stereo unspecified)
- CC50 [1]: 400 µM
- EC50 [2]: 50 µM
- Ki (Adenosine deaminase): 92 µM

SMILES: OC[C@H]1O[C@@H](n2cnc3c(NC4CCCCCC4)cc(Cl)nc32)C[C@@H]1O
- CC50 [1]: 5 µM
- EC50 [2]: 0.2 µM
- Ki (Adenosine deaminase): > 100 µM

SMILES: Nc1ncnc2c1ncn2[C@H]1CC[C@@H](CO)O1
- CC50 [1]: > 100 µM
- EC50 [2]: 2 µM

SMILES: CNc1ccnc2c1ncn2[C@H]1C[C@H](O)[C@@H](CO)O1
- CC50 [1]: > 100 µM
- EC50 [2]: > 100 µM
- Ki (Adenosine deaminase): 0.25 µM

SMILES: OCC1CCC(n2cnc3c(NC4CCCCCC4)ccnc32)O1 (stereo unspecified)
- CC50 [1]: 40 µM
- EC50 [2]: 8 µM
- Ki (Adenosine deaminase): 53 µM

SMILES: OC[C@H]1O[C@@H](n2cnc3c(NC4CC4)ccnc32)C[C@@H]1O
- CC50 [1]: > 100 µM
- EC50 [2]: > 100 µM
- Ki (Adenosine deaminase): 50 µM

SMILES: OCC1CCC(n2cnc3c(NC4CC4)cc(Cl)nc32)O1 (stereo unspecified)
- CC50 [1]: > 100 µM
- EC50 [2]: > 100 µM
- Ki (Adenosine deaminase): > 100 µM

SMILES: OC[C@H]1O[C@@H](n2cnc3c(NC4CCCCC4)cc(Cl)nc32)C[C@@H]1O
- CC50 [1]: 100 µM
- EC50 [2]: 4 µM
- Ki (Adenosine deaminase): > 100 µM

SMILES: OC[C@H]1O[C@@H](n2cnc3c(NC4CCCC4)ccnc32)[C@H](O)[C@@H]1O
- CC50 [1]: 400 µM
- EC50 [2]: 16 µM
- Ki (Adenosine deaminase): > 100 µM

SMILES: OC[C@H]1OC(n2cnc3c(NC4CCCCCC4)ccnc32)[C@H](O)[C@@H]1O (stereo partly specified)
- CC50 [1]: 100 µM
- EC50 [2]: 20 µM
- Ki (Adenosine deaminase): > 100 µM

SMILES: OC[C@H]1O[C@@H](n2cnc3c(NC4CCC4)cc(Cl)nc32)C[C@@H]1O
- CC50 [1]: 400 µM
- EC50 [2]: 4 µM
- Ki (Adenosine deaminase): > 100 µM

SMILES: OC[C@H]1O[C@@H](n2cnc3c(NC4CCCCCCC4)ccnc32)C[C@@H]1O
- CC50 [1]: 40 µM
- EC50 [2]: 4 µM
- Ki (Adenosine deaminase): 59 µM

SMILES: Nc1cc(Cl)nc2c1ncn2C1CCC(CO)O1 (stereo unspecified)
- CC50 [1]: > 100 µM
- EC50 [2]: > 100 µM
- Ki (Adenosine deaminase): > 100 µM

SMILES: Nc1ccnc2c1ncn2[C@@H]1O[C@H](CO)[C@@H](O)[C@H]1O
- CC50 [1]: 2 µM
- EC50 [2]: > 100 µM
- Ki (Adenosine deaminase): 0.38 µM

SMILES: Nc1ccnc2c1ncn2C1CCC(CO)O1 (stereo unspecified)
- CC50 [1]: > 100 µM
- EC50 [2]: > 100 µM
- Ki (Adenosine deaminase): 2.5 µM

SMILES: OCC1CCC(n2cnc3c(NC4CC4)ccnc32)O1 (stereo unspecified)
- CC50 [1]: 750 µM
- EC50 [2]: 100 µM
- Ki (Adenosine deaminase): 78 µM

SMILES: OC[C@H]1O[C@@H](n2cnc3c(NC4CCCCCC4)ccnc32)C[C@@H]1O
- CC50 [1]: 80 µM
- EC50 [2]: 30 µM
- Ki (Adenosine deaminase): 42 µM

SMILES: OCC1CCC(n2cnc3c(NC4CCCCCCC4)ccnc32)O1 (stereo unspecified)
- CC50 [1]: 10 µM
- EC50 [2]: 0.8 µM
- Ki (Adenosine deaminase): > 100 µM

SMILES: OC[C@H]1O[C@@H](n2cnc3c(NC4CC4)ccnc32)[C@H](O)[C@@H]1O
- CC50 [1]: > 100 µM
- EC50 [2]: > 100 µM
- Ki (Adenosine deaminase): 38 µM

SMILES: OC[C@H]1O[C@@H](n2cnc3c(NC4CC4)cc(Cl)nc32)[C@H](O)[C@@H]1O
- CC50 [1]: 500 µM
- EC50 [2]: 30 µM
- Ki (Adenosine deaminase): > 100 µM

SMILES: OC[C@H]1O[C@@H](n2cnc3c(NC4CCCC4)cc(Cl)nc32)[C@H](O)[C@@H]1O
- CC50 [1]: 100 µM
- EC50 [2]: 10 µM
- Ki (Adenosine deaminase): > 100 µM

SMILES: OC[C@H]1OC(n2cnc3c(NC4CCCCCCC4)ccnc32)[C@H](O)[C@@H]1O (stereo partly specified)
- CC50 [1]: 50 µM
- EC50 [2]: 4 µM
- Ki (Adenosine deaminase): 80 µM

SMILES: OC[C@H]1O[C@@H](n2cnc3c(NC4CCCC4)ccnc32)C[C@@H]1O
- CC50 [1]: 400 µM
- EC50 [2]: 40 µM
- Ki (Adenosine deaminase): 22 µM

SMILES: OC[C@H]1O[C@@H](n2cnc3c(NC4CCC4)ccnc32)[C@H](O)[C@@H]1O
- CC50 [1]: > 100 µM
- EC50 [2]: > 100 µM
- Ki (Adenosine deaminase): 100 µM

SMILES: OC[C@H]1O[C@@H](n2cnc3c(NC4CCCCC4)ccnc32)[C@H](O)[C@@H]1O
- CC50 [1]: 400 µM
- EC50 [2]: 100 µM
- Ki (Adenosine deaminase): > 100 µM

SMILES: CNc1cc(Cl)nc2c1ncn2C1CCC(CO)O1 (stereo unspecified)
- CC50 [1]: > 100 µM
- EC50 [2]: > 100 µM
- Ki (Adenosine deaminase): 11 µM

SMILES: OCC1CCC(n2cnc3c(NC4CCCCC4)cc(Cl)nc32)O1 (stereo unspecified)
- CC50 [1]: 20 µM
- EC50 [2]: 4 µM
- Ki (Adenosine deaminase): > 100 µM

SMILES: OC[C@H]1O[C@@H](n2cnc3c(NC4CC4)cc(Cl)nc32)C[C@@H]1O
- CC50 [1]: 500 µM
- EC50 [2]: 8 µM
- Ki (Adenosine deaminase): 75 µM

SMILES: OC[C@H]1OC(n2cnc3c(NC4CCCCCC4)cc(Cl)nc32)[C@H](O)[C@@H]1O (stereo partly specified)
- CC50 [1]: 50 µM
- EC50 [2]: 8 µM
- Ki (Adenosine deaminase): > 100 µM

SMILES: Nc1cc(Cl)nc2c1ncn2[C@@H]1O[C@H](CO)[C@@H](O)[C@H]1O
- CC50 [1]: > 100 µM
- EC50 [2]: > 100 µM
- Ki (Adenosine deaminase): 30 µM

SMILES: OCC1CCC(n2cnc3c(NC4CCC4)cc(Cl)nc32)O1 (stereo unspecified)
- CC50 [1]: 250 µM
- EC50 [2]: 4 µM
- Ki (Adenosine deaminase): > 100 µM

SMILES: OC[C@H]1O[C@@H](n2cnc3c(NC4CCCCC4)cc(Cl)nc32)[C@H](O)[C@@H]1O
- CC50 [1]: 50 µM
- EC50 [2]: 20 µM
- Ki (Adenosine deaminase): > 100 µM

SMILES: OC[C@H]1O[C@@H](n2cnc3c(NC4CCCC4)cc(Cl)nc32)C[C@@H]1O
- CC50 [1]: 7 µM
- EC50 [2]: 0.8 µM
- Ki (Adenosine deaminase): > 100 µM

SMILES: OCC1CCC(n2cnc3c(NC4CCCC4)ccnc32)O1 (stereo unspecified)
- CC50 [1]: 500 µM
- EC50 [2]: 80 µM
- Ki (Adenosine deaminase): > 100 µM

SMILES: CNc1ccnc2c1ncn2C1O[C@H](CO)[C@@H](O)[C@H]1O (stereo partly specified)
- CC50 [1]: > 100 µM
- EC50 [2]: > 100 µM
- Ki (Adenosine deaminase): 12 µM

SMILES: OCC1CCC(n2cnc3c(NC4CCCC4)cc(Cl)nc32)O1 (stereo unspecified)
- CC50 [1]: 50 µM
- EC50 [2]: 20 µM
- Ki (Adenosine deaminase): > 100 µM

SMILES: OC[C@H]1O[C@@H](n2cnc3c(NC4CCC4)cc(Cl)nc32)[C@H](O)[C@@H]1O
- CC50 [1]: 400 µM
- EC50 [2]: 100 µM
- Ki (Adenosine deaminase): 97 µM

SMILES: OCC1CCC(n2cnc3c(NC4CCCCCCC4)cc(Cl)nc32)O1 (stereo unspecified)
- CC50 [1]: 10 µM
- EC50 [2]: 0.4 µM
- Ki (Adenosine deaminase): > 100 µM

SMILES: OC[C@H]1O[C@@H](n2cnc3c(NC4CCCCC4)ccnc32)C[C@@H]1O
- CC50 [1]: 100 µM
- EC50 [2]: 8 µM
- Ki (Adenosine deaminase): > 100 µM

SMILES: OCC1CCC(n2cnc3c(NC4CCCCC4)ccnc32)O1 (stereo unspecified)
- CC50 [1]: 50 µM
- EC50 [2]: 40 µM
- Ki (Adenosine deaminase): 69 µM

SMILES: CNc1cc(Cl)nc2c1ncn2C1O[C@H](CO)[C@@H](O)[C@H]1O (stereo partly specified)
- CC50 [1]: > 100 µM
- EC50 [2]: > 100 µM
- Ki (Adenosine deaminase): 69 µM

SMILES: Nc1ccnc2c1ncn2[C@H]1C[C@H](O)[C@@H](CO)O1
- CC50 [1]: > 100 µM
- EC50 [2]: > 100 µM
- Ki (Adenosine deaminase): 0.19 µM

SMILES: CNc1cc(Cl)nc2c1ncn2[C@H]1C[C@H](O)[C@@H](CO)O1
- CC50 [1]: > 100 µM
- EC50 [2]: > 100 µM
- Ki (Adenosine deaminase): 4.2 µM

SMILES: CNc1ccnc2c1ncn2C1CCC(CO)O1 (stereo unspecified)
- CC50 [1]: 100 µM
- EC50 [2]: 50 µM
- Ki (Adenosine deaminase): 2.2 µM

SMILES: OCC1CCC(n2cnc3c(NC4CCCCCC4)cc(Cl)nc32)O1 (stereo unspecified)
- CC50 [1]: 8 µM
- EC50 [2]: 0.8 µM
- Ki (Adenosine deaminase): > 100 µM

SMILES: OC[C@H]1O[C@@H](n2cnc3c(NC4CCCCCCC4)cc(Cl)nc32)C[C@@H]1O
- CC50 [1]: 40 µM
- EC50 [2]: 2 µM
- Ki (Adenosine deaminase): > 100 µM
